Measurements from patent US11053225B2, “Pyrimidine derivative compound, optical isomer thereof, or pharmaceutically acceptable salt thereof, and composition for preventing or treating Tyro 3 related disease comprising same as active ingredient” (KOREA RESEARCH INSTITUTE OF CHEMICAL TECHNOLOGY, priority 2017, dated 2021).

Key:
hERG = hERG (Homo sapiens (Human), UniProt Q12809); assay: human ether-a-go-go-related gene (hERG) assay; details: for hERG toxicity: result in words
Experimental: In the development of medicines, drug toxicity as well as therapeutic effects plays an important role. One of the most commonly used criteria for determining drug toxicity is human ether-a-go-go-related gene (hERG) toxicity. Most pharmaceutical companies determine a drug showing a hERG IC50 value of less than 0.1 μM to be highly toxic, and thus stop the development of the drug. Whereas, the companies determine a drug showing a hERG IC50 value of 10 μM or more to be non-toxic.
For investigation of the degree of drug toxicity by TAM receptor inhibiting compounds of the present invention, human ether-a-go-go-related gene (hERG) assay was performed on Compounds 29, 60, 73, 75, 84, 89, and 132 on Table 4.

Axl = Axl (Homo sapiens (Human), UniProt P30530); assay: Axl kinase inhibition assay (Cisbio method, Eu-labeled antibody to phosphorylated peptide); details: read-out: IC50 (μM) Axl; 1 hour reaction with substrate peptide and ATP
Experimental: (§1) For evaluation of inhibitory activities of the compounds according to the present invention on Tyro 3, Axl, and Mer, the following test was carried out.
(§2) The specific test method followed the method provided by Cisbio. The compounds of the examples were prepared at various concentrations, followed by addition of Tyro 3, Axl, or Mer and substrate peptides, and then ATP was added to initiate a reaction. After 1 hour, the reaction was stopped by addition of a solution containing EDTA. Thereafter, the amount of phosphorylated peptides was measured. Here, the phosphorylated peptides were treated with an europium (Eu)-labeled antibody recognizing phosphorylated peptides, and then after 1 hour, excited by irradiation of the light of a wavelength of 320 or 340 nm using an Envision Reader.

Mer = Mer (Homo sapiens (Human), UniProt Q12866); assay: Mer kinase inhibition assay (Cisbio method, Eu-labeled antibody to phosphorylated peptide); details: read-out: IC50 (μM) Mer; 1 hour reaction with substrate peptide and ATP
Sequence of Mer (Q12866 21-999): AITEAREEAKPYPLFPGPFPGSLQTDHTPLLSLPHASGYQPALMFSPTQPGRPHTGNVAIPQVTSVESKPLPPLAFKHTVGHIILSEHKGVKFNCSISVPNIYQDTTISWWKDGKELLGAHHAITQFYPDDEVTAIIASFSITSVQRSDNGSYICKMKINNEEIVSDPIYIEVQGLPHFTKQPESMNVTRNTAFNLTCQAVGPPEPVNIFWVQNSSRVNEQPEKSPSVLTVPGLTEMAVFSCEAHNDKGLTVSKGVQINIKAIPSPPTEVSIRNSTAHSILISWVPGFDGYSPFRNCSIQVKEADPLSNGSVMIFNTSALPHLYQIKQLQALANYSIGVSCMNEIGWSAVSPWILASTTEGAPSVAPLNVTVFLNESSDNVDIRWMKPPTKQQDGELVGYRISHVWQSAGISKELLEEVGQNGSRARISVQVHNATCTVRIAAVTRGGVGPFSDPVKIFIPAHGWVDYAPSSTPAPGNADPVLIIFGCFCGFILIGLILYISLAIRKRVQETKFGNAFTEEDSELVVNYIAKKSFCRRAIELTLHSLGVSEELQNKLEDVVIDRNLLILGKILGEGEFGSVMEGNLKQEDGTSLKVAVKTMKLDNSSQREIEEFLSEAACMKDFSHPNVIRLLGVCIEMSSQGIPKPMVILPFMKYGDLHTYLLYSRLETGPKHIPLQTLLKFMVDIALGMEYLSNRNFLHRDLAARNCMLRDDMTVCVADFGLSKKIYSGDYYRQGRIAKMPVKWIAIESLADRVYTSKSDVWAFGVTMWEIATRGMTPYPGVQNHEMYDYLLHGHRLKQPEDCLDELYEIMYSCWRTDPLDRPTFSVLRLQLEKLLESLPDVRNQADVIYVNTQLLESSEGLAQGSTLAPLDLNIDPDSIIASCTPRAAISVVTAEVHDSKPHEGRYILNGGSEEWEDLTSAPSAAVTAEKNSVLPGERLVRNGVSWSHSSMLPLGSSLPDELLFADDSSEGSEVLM
Experimental: as §1, §2

Sequence of Axl (P30530 26-894): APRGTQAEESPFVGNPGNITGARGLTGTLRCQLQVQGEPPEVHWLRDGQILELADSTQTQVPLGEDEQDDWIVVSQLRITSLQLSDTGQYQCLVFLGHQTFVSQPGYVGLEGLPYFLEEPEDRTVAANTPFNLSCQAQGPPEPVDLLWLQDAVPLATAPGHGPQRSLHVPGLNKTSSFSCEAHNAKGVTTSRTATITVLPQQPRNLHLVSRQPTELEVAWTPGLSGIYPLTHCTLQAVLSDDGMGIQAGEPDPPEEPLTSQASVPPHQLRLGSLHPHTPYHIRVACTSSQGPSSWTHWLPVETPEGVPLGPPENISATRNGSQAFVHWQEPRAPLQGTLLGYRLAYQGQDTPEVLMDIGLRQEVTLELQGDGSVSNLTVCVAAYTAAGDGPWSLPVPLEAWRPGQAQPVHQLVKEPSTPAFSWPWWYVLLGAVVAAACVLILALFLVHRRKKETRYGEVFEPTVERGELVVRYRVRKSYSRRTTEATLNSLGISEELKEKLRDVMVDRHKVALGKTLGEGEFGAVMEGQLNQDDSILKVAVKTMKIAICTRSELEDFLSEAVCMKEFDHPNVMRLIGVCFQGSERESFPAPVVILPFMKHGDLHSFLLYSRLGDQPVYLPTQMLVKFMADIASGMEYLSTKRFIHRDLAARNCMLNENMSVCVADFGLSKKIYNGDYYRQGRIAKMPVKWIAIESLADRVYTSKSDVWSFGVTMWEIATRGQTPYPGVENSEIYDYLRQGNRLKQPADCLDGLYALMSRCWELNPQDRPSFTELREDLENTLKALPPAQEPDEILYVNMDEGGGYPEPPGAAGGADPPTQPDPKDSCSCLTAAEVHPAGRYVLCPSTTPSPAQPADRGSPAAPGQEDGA
Sequence of hERG (Q12809 whole entry): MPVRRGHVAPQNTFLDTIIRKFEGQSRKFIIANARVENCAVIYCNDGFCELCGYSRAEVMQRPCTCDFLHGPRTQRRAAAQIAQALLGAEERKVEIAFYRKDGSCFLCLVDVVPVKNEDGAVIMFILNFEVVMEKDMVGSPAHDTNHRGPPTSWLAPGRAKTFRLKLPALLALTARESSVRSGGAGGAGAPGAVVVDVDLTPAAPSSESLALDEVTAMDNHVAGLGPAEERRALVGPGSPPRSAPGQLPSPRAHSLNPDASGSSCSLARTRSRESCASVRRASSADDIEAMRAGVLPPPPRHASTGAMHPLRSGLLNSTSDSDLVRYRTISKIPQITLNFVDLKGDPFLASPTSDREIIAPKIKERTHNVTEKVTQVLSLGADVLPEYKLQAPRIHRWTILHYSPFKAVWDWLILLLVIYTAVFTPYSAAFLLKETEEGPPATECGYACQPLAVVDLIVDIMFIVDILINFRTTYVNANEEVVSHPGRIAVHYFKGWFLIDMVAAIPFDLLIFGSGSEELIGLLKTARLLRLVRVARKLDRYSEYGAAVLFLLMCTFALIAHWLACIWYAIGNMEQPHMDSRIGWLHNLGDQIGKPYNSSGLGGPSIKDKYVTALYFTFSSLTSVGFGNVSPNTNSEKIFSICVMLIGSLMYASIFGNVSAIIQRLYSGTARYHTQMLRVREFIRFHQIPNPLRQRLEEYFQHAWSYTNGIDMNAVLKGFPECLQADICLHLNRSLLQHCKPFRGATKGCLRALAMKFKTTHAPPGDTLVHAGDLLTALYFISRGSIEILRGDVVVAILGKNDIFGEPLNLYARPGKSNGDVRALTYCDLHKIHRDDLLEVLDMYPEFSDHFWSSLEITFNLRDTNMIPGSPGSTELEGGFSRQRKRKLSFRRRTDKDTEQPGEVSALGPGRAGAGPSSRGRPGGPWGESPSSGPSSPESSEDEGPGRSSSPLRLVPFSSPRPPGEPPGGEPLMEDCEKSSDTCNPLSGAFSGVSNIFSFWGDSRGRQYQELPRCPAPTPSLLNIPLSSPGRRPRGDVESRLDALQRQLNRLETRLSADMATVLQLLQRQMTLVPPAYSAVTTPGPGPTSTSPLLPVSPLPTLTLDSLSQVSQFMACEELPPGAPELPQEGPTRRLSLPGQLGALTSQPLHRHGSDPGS

SMILES | IC50 (Axl) [µM] | other results
OCCn1cc(-c2cnc(Nc3cc(Cl)cc(Cl)c3)nc2NC2CCNCC2)cn1 [Compound 75, 2-(4-(2-(3,5-dichlorophenylamino)-4-(piperidin-4-ylamino)pyrimidin-5-yl)-1H-pyrazol-1-yl)ethanol] | – | IC50 (hERG): ≥ 50 µM
Cn1cc(-c2cnc(Nc3cc(Cl)cc(Cl)c3)nc2NC2CCNCC2)cn1 [Compound 29, N2-(3,5-dichlorophenyl)-5-(1-methyl-1H-pyrazol-4-yl)-N4-(piperidin-4-yl)pyrimidine-2,4-diamine] | – | IC50 (hERG): ≤ 1 µM
O=C(N1CCc2ccc(Nc3nc(Nc4cccc(Cl)c4Cl)ncc3-c3cnn(CCO)c3)cc2C1)C(F)(F)F [Compound 125, 1-(7-(2-(2,3-dichlorophenylamino)-5-(1-(2-hydroxyethyl)-1H-pyrazol-4-yl)pyrimidin-4-ylamino)-3,4-dihydroisoquinolin-2(1H)-yl)-2,2,2-trifluoroethanone] | > 10 | –
Clc1cc(Cl)cc(Nc2ncc(-c3cnn(C4CCNCC4)c3)c(NC3CCNCC3)n2)c1 [Compound 73, N2-(3,5-dichlorophenyl)-N4-(piperidin-4-yl)-5-(1-(piperidin-4-yl)-1H-pyrazol-4-yl)pyrimidine-2,4-diamine] | – | IC50 (hERG): ≥ 50 µM
Cn1cc(-c2cnc(NCCc3ccncc3)nc2NC2CCCCC2)cn1 [Compound 17] | > 10 | –
COc1ccc(Nc2ncc(-c3ccc(OC)c(OC)c3)c(NC3CCN(C(=O)C(F)(F)F)CC3)n2)cc1 [Compound 64, 1-(4-(5-(3,4-dimethoxyphenyl)-2-(4-methoxyphenylamino)pyrimidin-4-ylamino)piperidin-1-yl)-2,2,2-trifluoroethanone] | > 10 | –
Cn1cc(-c2cnc(Nc3ccc4c(c3)CN(C(=O)C(F)(F)F)CC4)nc2NC2CCN(C(=O)C(F)(F)F)CC2)cn1 [Compound 70, 1-(4-(5-(1-methyl-1H-pyrazol-4-yl)-2-(2-(2,2,2-trifluoroacetyl)-1,2,3,4-tetrahydroisoquinolin-7-ylamino)pyrimidin-4-ylamino)piperidin-1-yl)-2,2,2-trifluoroethanone] | > 10 | –
O=C(N1CCC(Nc2nc(Nc3cc(Cl)cc(Cl)c3)ncc2-c2cnn(CCO)c2)CC1)C(F)(F)F [Compound 71, 1-(4-(2-(3,5-dichlorophenylamino)-5-(1-(2-hydroxyethyl)-1H-pyrazol-4-yl)pyrimidin-4-ylamino)piperidin-1-yl)-2,2,2-trifluoroethanone] | > 10 | –
Cc1cccc(Nc2ncc(-c3ccoc3)c(NC3CCN(C(=O)C(F)(F)F)CC3)n2)c1 [Compound 50, 1-(4-(2-(m-toluidino)-5-(furan-3-yl)pyrimidin-4-ylamino)piperidin-1-yl)-2,2,2-trifluoroethanone] | > 10 | –
COc1ccccc1Nc1ncc(-c2ccc(OC)c(OC)c2)c(NC2CCNCC2)n1 [Compound 68, 5-(3,4-dimethoxyphenyl)-N2-(2-methoxyphenyl)-N4-(piperidin-4-yl)pyrimidine-2,4-diamine] | > 10 | –
COc1ccc(-c2cnc(Nc3cccc(Cl)c3)nc2NC2CCN(C(=O)C(F)(F)F)CC2)cc1OC [Compound 69, 1-(4-(2-(3-chlorophenylamino)-5-(3,4-dimethoxyphenyl)pyrimidin-4-ylamino)piperidin-1-yl)-2,2,2-trifluoroethanone] | > 10 | –
COc1ccc(Nc2ncc(-c3cnn(C)c3)c(NC3CCCCC3)n2)cc1Cl [Compound 9, N2-(3-chloro-4-methoxyphenyl)-N4-cyclohexyl-5-(1-methyl-1H-pyrazol-4-yl)pyrimidine-2,4-diamine] | > 10 | –
Cn1cc(-c2cnc(Nc3cc(C(F)(F)F)cc(C(F)(F)F)c3)nc2Nc2ccc3c(c2)CNCC3)cn1 [Compound 136, N2-(3,5-bis(trifluoromethyl)phenyl)-5-(1-methyl-1H-pyrazol-4-yl)-N4-(1,2,3,4-tetrahydroisoquinolin-7-yl)pyrimidine-2,4-diamine] | > 10 | –
Cn1cc(-c2cnc(Nc3cc(Cl)cc(Cl)c3)nc2Nc2ccc3c(c2)CNCC3)cn1 [Compound 84, N2-(3,5-dichlorophenyl)-5-(1-methyl-1H-pyrazol-4-yl)-N4-(1,2,3,4-tetrahydroisoquinolin-7-yl)pyrimidine-2,4-diamine] | – | hERG toxicity (hERG): no hERG toxicity
Cc1ccc(Nc2ncc(-c3ccoc3)c(NC3CCCCC3)n2)cc1 [Compound 14, N4-cyclohexyl-5-(furan-3-yl)-N2-(p-tolyl)pyrimidine-2,4-diamine] | > 10 | –
COc1ccc(Nc2ncc(-c3cnn(C)c3)c(NC3CCN(C(=O)C(F)(F)F)CC3)n2)cc1 [Compound 44, 1-(4-(2-(4-methoxyphenylamino)-5-(1-methyl-1H-pyrazol-4-yl)pyrimidin-4-ylamino)piperidin-1-yl)-2,2,2-trifluoroethanone] | > 10 | –

SMILES | IC50 (Axl) [µM] | other results
CCOc1cn(-c2ccc(F)cc2C)nc1C(=O)Nc1ccc(Oc2ccnc3cc(OC)c(OC)cc23)c(F)c1 [LDC1267, reference compound] | – | IC50 (Mer): 0.068 µM
O=C(NC1CCC(Nc2nc(Nc3cc(Cl)cc(Cl)c3)ncc2-c2cnn(C3CCNCC3)c2)CC1)C(F)(F)F (centres unmarked) [Compound 122, 1-(4-(2-(3,5-dichlorophenylamino)-5-(1-(piperidin-4-yl)-1H-pyrazol-4-yl)pyrimidin-4-ylamino)cyclohexyl)-2,2,2-trifluoroacetamide] | > 10 | –
COc1cc(Nc2ncc(-c3cnn(C)c3)c(Nc3ccc4c(c3)CN(C(=O)C(F)(F)F)CC4)n2)cc(OC)c1 [Compound 138, 1-(7-(2-(3,5-dimethoxyphenylamino)-5-(1-methyl-1H-pyrazol-4-yl)pyrimidin-4-ylamino)-3,4-dihydroisoquinolin-2(1H)-yl)-2,2,2-trifluoroethan-1-one] | > 10 | –
Cn1cc(-c2cnc(Nc3ccc4c(c3)CNCC4)nc2N[C@H]2CC[C@@H](N)CC2)cn1 [Compound 88, N4-((1s,4s)-4-aminocyclohexyl)-5-(1-methyl-1H-pyrazol-4-yl)-N2-(1,2,3,4-tetrahydroisoquinolin-7-yl)pyrimidin-2,4-diamine] | > 10 | –
Cc1ccc(Nc2ncc(-c3ccc(C)cc3)c(NC3CCCCC3)n2)cc1 [Compound 2, N4-cyclohexyl-N2,5-di-(p-tolyl)pyrimidine-2,4-diamine] | > 10 | –
Clc1cc(Cl)cc(Nc2ncc(-c3cnn(C4CCNCC4)c3)c(Nc3ccc4c(c3)CNCC4)n2)c1 [Compound 132, N2-(3,5-dichlorophenyl)-5-(1-(piperidin-4-yl)-1H-pyrazol-4-yl)-N4-(1,2,3,4-tetrahydroisoquinolin-7-yl)pyrimidine-2,4-diamine] | – | hERG toxicity (hERG): no hERG toxicity
Cn1cc(-c2cnc(Nc3ccc4c(c3)CN(C(=O)C(F)(F)F)CC4)nc2N[C@H]2CC[C@@H](NC(=O)C(F)(F)F)CC2)cn1 [Compound 86, N-((1s,4s)-4-(5-(1-methyl-1H-pyrazol-4-yl)-2-(2-(2,2,2-trifluoroacetyl)-1,2,3,4-tetrahydroisoquinolin-7-ylamino)pyrimidin-4-ylamino)cyclohexyl)-2,2,2-trifluoroacetamide] | > 10 | –
O=C(N1CCc2ccc(Nc3nc(Nc4cc(C(F)(F)F)cc(C(F)(F)F)c4)ncc3-c3cnn(CCO)c3)cc2C1)C(F)(F)F [Compound 124, 1-(7-(2-(3,5-bis(trifluoromethyl)phenylamino)-5-(1-(2-hydroxyethyl)-1H-pyrazol-4-yl)pyrimidin-4-ylamino)-3,4-dihydroisoquinolin-2(1H)-yl)-2,2,2-trifluoroethanone] | > 10 | –
COc1ccc(Nc2ncc(-c3cnn(C)c3)c(NC3CCNCC3)n2)cc1 [Compound 47, N2-(4-methoxyphenyl)-5-(1-methyl-1H-pyrazol-4-yl)-N4-(piperidin-4-yl)pyrimidine-2,4-diamine] | > 10 | –
Cc1ccc(Nc2ncc(-c3ccoc3)c(NC3CCN(C(=O)C(F)(F)F)CC3)n2)cc1 [Compound 49, 1-(4-(2-(p-toluidino)-5-(furan-3-yl)pyrimidin-4-ylamino)piperidin-1-yl)-2,2,2-trifluoroethanone] | > 10 | –
COc1cccc(-c2cnc(Nc3cc(Cl)cc(Cl)c3)nc2NC2CCNCC2)c1 [Compound 60, N2-(3,5-dichlorophenyl)-5-(3-methoxyphenyl)-N4-(piperidin-4-yl)pyrimidine-2,4-diamine] | – | IC50 (hERG): ≤ 1 µM
Cc1cc(Nc2ncc(-c3cnn(C)c3)c(NC3CCN(C(=O)C(F)(F)F)CC3)n2)ccc1Cl [Compound 43, 1-(4-(2-(3-methyl-4-chlorophenylamino)-5-(1-methyl-1H-pyrazol-4-yl)pyrimidin-4-ylamino)piperidin-1-yl)-2,2,2-trifluoroethanone] | > 10 | –
OCCn1cc(-c2cnc(Nc3cc(Cl)cc(Cl)c3)nc2Nc2ccc3c(c2)CNCC3)cn1 [Compound 89, 2-(4-(2-(3,5-dichlorophenylamino)-4-(1,2,3,4-tetrahydroisoquinolin-7-ylamino)pyrimidin-5-yl)-1H-pyrazol-1-yl)ethanol] | – | hERG toxicity (hERG): no hERG toxicity
Cn1cc(-c2cnc(Nc3ccccc3)nc2NC2CCCCC2)cn1 [Compound 6, N4-cyclohexyl-5-(1-methyl-1H-pyrazol-4-yl)-N2-phenylpyrimidine-2,4-diamine] | > 10 | –
Cn1cc(-c2cnc(NC34CC5CC(CC(C5)C3)C4)nc2NC2CCCCC2)cn1 [Compound 23, N4-cyclohexyl-N2-adamantyl-5-(1-methyl-1H-pyrazol-4-yl)pyrimidine-2,4-diamine] | > 10 | –
Clc1cc(Cl)cc(Nc2ncc(-c3ccoc3)c(NC3CCCCC3)n2)c1 [Compound 15, N4-cyclohexyl-N2-(3,5-dichlorophenyl)-5-(furan-3-yl)pyrimidine-2,4-diamine] | > 10 | –
